Test results as given in patent US11925678B2, “Methods for diagnosing and treating Alzheimer's disease” (Cava Healthcare Inc., priority 2011, dated 2024).
Where two headings read alike, the source gives them in different places.

Legend:
Tg2576 mice [1] = details: cited from earlier work
Tg2576 mice [2] = assay: Apoptosis by activated caspase-3 staining in immunized mice; type: in vivo, mouse
Experimental: (§1) Injections were performed i.p.
An anti-activated caspase-3 antibody was used as a marker of apoptosis FIG. 9. […] PBS immunized Tg2576 mice, both preventative and therapeutic, had significant activated caspase-3 staining within the FIG. 9a cortex and hippocampus (not shown) that tended to surround probable abeta plaques. […] The overall density of activated caspase-3 staining in these mice was noted to be lower than the Tg2576 treated with abeta. […] Cortex activated caspase-3 staining appear similar in the abeta immunized Tg2576 to the wild-type variants.

Tg2576 (Tg/+) mice = assay: Microvessel density (MVD) by CD105 staining in immunized mice; type: in vivo, mouse; details: for microvessel density (MVD), ratio of TFA to total area of imaged field: CD105 staining, mean±SEM
Experimental: as §1
Microvessel density (MVD) was quantified by confocal microscopy using the methods developed by Guo et al. (Angiogenesis 4, 187-191 with minor modifications). Using CD105 as a marker of angiogenic cerebrovasculature (Masliah et al. (2005) Neurology 64, 129-131), images of optimal fluorescent intensity were acquired and analyzed using the Zeiss LSM510 Meta software. Areas within the brain section containing high density (“hotspots”) (Bombois et al. (2007) Arch Neurol 64, 583-587) CD105 staining were imaged using the 20×/0.45 N-Achroplan objective using the confocal imaging parameters mentioned previously. The total fluorescence area (TFA) in μm^2 was integrated above background, by the software, for each hotspot. The average TFA from four different hotspots per mouse was quantified. The TFA was used as a numerical representation of the total microvessels stained by the CD105 antibody. The MVD of the imaged field was expressed as a ratio of the TFA to the total area of the image.
Microvessel density quantification: Microvessel density was quantified by confocal microscopy using the methods described previously Biron et al., PLoS ONE 6, e23789 (2011)). Using CD105 as a marker of angiogenic cerebrovasculature (Holley et al. Neurosci Lett 470, 65-70 (2010)), images of optimal fluorescent intensity were acquired and analyzed using the Zeiss LSM510 Meta software. Areas within the brain section containing high density (“hotspots”) CD105 staining were imaged using the 20×/0.45 N-Achroplan objective using the confocal imaging parameters mentioned previously. The total fluorescence area (TFA) in μm^2 was integrated above background, by the software, for each hotspot. The average TFA from four different hotspots per mouse was quantified. The TFA was used as a numerical representation of the total microvessels stained by the CD105 antibody. The microvascular density of the imaged field was expressed as a ratio of the TFA to the total area of the image.

[3] = system: Tg2576 and wild-type mice
Experimental: (§2) Briefly, two separate vaccination strategies were carried out, therapeutic and preventative. Prior to immunization, mice were bled from the saphenous vein and serum collected. In the preventative approach, mice were vaccinated beginning at 6 weeks of age and sacrificed at 12 months. Mice used in the therapeutic strategy were vaccinated beginning at 11 months of age and sacrificed at 15 months. Abeta peptide was freshly prepared from lyophilized powder for each set of injections. For immunizations, 2 mg of abeta (human abeta1-40, Bachem) was added to 0.9 mL of deionized water and thoroughly mixed. Then 100 μL of 10×PBS was added to obtain a final 1×PBS concentration. The solution was vortexed and placed at 37° C. overnight until use the next day. Abeta1-40 (100 μg antigen per injection) or PBS (control) was mixed 1:1 (v/v) with complete Freund's adjuvant (CFA) for the first immunization. This was followed by a boost with abeta1-40 (100 μg) or PBS mixed 1:1 (v/v) with incomplete Freund's adjuvant (ICFA) at two weeks and monthly thereafter. From the fifth immunization onward, straight PBS or abeta were injected. Injections were performed i.p.
Tg2576 and wild-type mice immunized, preventatively or therapeutically, with either abeta or PBS were assessed for cerebrovascular leakage and TJ abnormalities by confocal microscopy. Mouse albumin was used as a marker for vascular leakage and was visualized as diffuse gradient staining emanating away from vessels FIG. 8b (white arrowhead).

[4] = system: Tg2576 (Tg/+) and wild-type (+/+) mice; details: for tight junction abnormalities compared to PBS immunized controls (qualitative) / TJ expression in microvessels/capillaries (qualitative) / incidence of TJ disruption (percentage of blood vessels with abnormal TJ morphology) / TJ expression in larger vessels (qualitative): Tg2576 mice; for tight junction abnormalities compared to PBS immunized controls (qualitative): cortex and hippocampus; for TJ expression in microvessels/capillaries (qualitative): preventative and therapeutic immunization; for incidence of TJ disruption (percentage of blood vessels with abnormal TJ morphology): mean±SEM; for TJ expression in larger vessels (qualitative): preventative or therapeutic immunization
Experimental: as §2
Dewaxed paraffin sections underwent antigen retrieval using a conventional stovetop pressure cooker using 20 mM Tris with 0.7 mM EDTA buffer (pH 9.0) at full steam for 2 minutes. Cooled slides were then incubated in blocking buffer (25% normal goat serum; 3% BSA; 0.3% Triton X-100, Sigma) for 1 hour at room temperature. Primary antibodies used included rabbit anti-ZO-1 (1:200, Invitrogen), mouse anti-ZO-1 (1:200, Invitrogen), rabbit anti-occludin (1:200, Invitrogen), rabbit anti-activated caspase-3 (1:1000, Imgenex), and mouse anti-human CD105 (1:20, DAKO). Primary antibody staining was performed overnight at 4C in staining buffer (10% normal goat serum; 3% BSA; 0.3% Triton X-100). Normal donkey serum was used when staining with goat primary antibodies. Secondary antibodies used were complimentary to the species of the primary conjugated with either Alexa Fluor dyes 488 or 568 (1:500, Invitrogen). Secondary antibody staining was performed at room temperature for 1 hour in staining buffer. TOTO-3 (1:10000, Invitrogen) was used for nuclear counterstaining. Sections were washed in PBS with 0.1% Tween-20 (Sigma) three times for 5 minutes each between staining steps. Stained sections were coverslipped using Fluoromount-G (Southern Biotech) and allowed to air dry in the dark overnight.
Brain sections were analyzed from paraffin blocks from every fifth section. Images taken on a Zeiss LSM510 Meta (Zeiss, Germany), were acquired with 16 slices, averaged four times, through the Z-plane using a 40×/1.3 oil-immersion Plan-Neofluor objective. The composite projected image was imported into Adobe Photoshop, at 600 dpi, and optimized for contrast and brightness. Quantitative analysis of tight junction morphology was analyzed according the methodology developed by Plumb et al. (Brain Pathol 12, 154-169). Confocal data sets represented approximately 100 cerebral blood vessels from both young and aged Tg2576 and littermate controls in the frontal cortex and hippocampus. Individual vessels were scored as either normal (1) or abnormal (0) for ZO-1 expression. Normal ZO-1 expression was judged as strong, continuous, intense and linear staining. In contrast, abnormal ZO-1 expression was judged as weak, punctate and/or discontinuous staining. […] To minimize the recording of incomplete or undulating vessels as abnormal, due to observed “gaps” in ZO-1 staining, evidence of vessel continuity was sought in the images. For example, the presence of stained nuclei (with TOTO-3) or punctate or diffuse ZO-1 remnants was used to localize the position of abnormal gaps along the vessel tract.

[5] = mouse, in vivo
Experimental: Mice were terminally anesthetized with ketamine/xylazine (100 mg/kg; 10 mg/kg) and perfused with PBS for 5 minutes. Brains were then rapidly excised, olfactory bulbs and cerebellum removed, weighed and post-fixed in 4% paraformaldehyde for four days at 4° C. The brains were then imbedded in paraffin and sectioned serially at 5 μm. […] Average brain weights were compared amongst the immunized mice by comparing brain to body mass ratios.

Tg2576 mice [6] = system: Tg2576 mice
Experimental: Briefly, two separate vaccination strategies were carried out, therapeutic and preventative. […] In the preventative approach, mice were vaccinated beginning at 6 weeks of age and sacrificed at 12 months. Mice used in the therapeutic strategy were vaccinated beginning at 11 months of age and sacrificed at 15 months. Abeta peptide was freshly prepared from lyophilized powder for each set of injections. For immunizations, 2 mg of abeta (human abeta1-40, Bachem) was added to 0.9 mL of deionized water and thoroughly mixed. Then 100 μL of 10×PBS was added to obtain a final 1×PBS concentration. The solution was vortexed and placed at 37° C. overnight until use the next day. Abeta1-40 (100 μg antigen per injection) or PBS (control) was mixed 1:1 (v/v) with complete Freund's adjuvant (CFA) for the first immunization. This was followed by a boost with abeta1-40 (100 μg) or PBS mixed 1:1 (v/v) with incomplete Freund's adjuvant (ICFA) at two weeks and monthly thereafter. From the fifth immunization onward, straight PBS or abeta were injected. Injections were performed i.p.
Aβ was imaged with a Zeiss LSM 710 Laser Scanning.

animal models of AD = details: cited from earlier work
endothelial cells = details: cited from earlier work
[7] = Tg2576 mice, preventative and therapeutic

For human abeta1-40, the “plaque burdens and microgliosis” value (Tg2576 mice [1]; Tg2576 mice) is given as “significantly reduced”, the “immune response: anti-abeta antibody titres” value (Tg2576 mice [1]; mice immunized preventatively or therapeutically) is given as “increase in anti-abeta antibody titres” and the “global integrity of the BBB” value (Tg2576 mice [1]; post-abeta immunized Tg2576 mice) is given as “improves significantly”. The “distribution of activated caspase-3 staining” value (Tg2576 mice [2]; Tg2576 mice) was “hippocampal restricted caspase-3 staining”, the “activated caspase-3 staining (qualitative, overall)” value (Tg2576 mice [2]; Tg2576 mice (FIG. 9)) was “reduced activated caspase-3 staining” and the “activated caspase-3 staining in cortex” value (Tg2576 mice [2]; [7]) was “limited caspase-3 staining”. For the same compound, the “microvessel density (MVD), ratio of TFA to total area of imaged field” value (Tg2576 (Tg/+) mice; Tg2576 mice immunized preventatively) was 0.1972±0.0075, the “microvessel density (MVD), ratio of TFA to total area of imaged field” value (Tg2576 (Tg/+) mice; Tg2576 mice immunized therapeutically (after disease onset)) was 0.2180±0.0130 and the “microvascular density compared to PBS controls (qualitative)” value (Tg2576 (Tg/+) mice; [7]) was “reduced microvascular density”. The “overall vascular leakage (qualitative)” value ([3]; Tg2576 mice, preventatively immunized (FIG. 8)) was “overall reduced vascular leakage”, the “vascular leakage in larger vessels (mouse albumin)” value ([3]; mouse, in vivo) was “periodic vascular leakage” and the “vascular leakage in wild-type mice” value ([3]; mouse, in vivo) was “no vascular leakage”. For the same compound, the “percentage of abnormal vascular TJ expression” value ([4]; Example 3, Tg/+ mice immunized preventatively from 6 weeks of age, neocortex and hippocampus) was ~10%, the “percentage of abnormal vascular TJ expression (TJ pathology)” value ([4]; Example 3, Tg/+ mice immunized therapeutically at 11 months of age, neocortex and hippocampus) was ~10% and the “tight junction abnormalities compared to PBS immunized controls (qualitative)” value [4] was “reduced tight junction abnormalities”. For the same compound, the “tight junction abnormalities compared to PBS immunized controls (qualitative)” value ([4]; listed as Abeta) was “markedly reduced TJ pathology”, the “tight junction abnormalities compared to PBS immunized controls (qualitative)” value ([4]; listed as Aβ) was “reduced tight junction abnormalities” and the “TJ expression in microvessels/capillaries (qualitative)” value [4] was “normal TJs”. The “TJ expression in microvessels/capillaries (qualitative)” value ([4]; listed as Aβ) was “normal ZO-1 expression in the capillaries”, the “incidence of TJ disruption (percentage of blood vessels with abnormal TJ morphology)” value ([4]; preventative immunization (6 weeks to 12 months), cortex) was 11.33±2.40% and the “incidence of TJ disruption (percentage of blood vessels with abnormal TJ morphology)” value ([4]; preventative immunization, hippocampus) was 11.91±1.73%. The “TJ expression in larger vessels (qualitative)” value [4] was “larger proportion of abnormal TJ expression”, the “TJ expression in larger vessels (qualitative)” value ([4]; listed as Aβ) was “some abnormal TJ pathology mainly in larger vessels” and the “incidence of TJ disruption (percentage of blood vessels with abnormal TJ morphology)” value ([4]; therapeutic immunization (11 to 15 months), cortex) was 10.40±0.81%. The “incidence of TJ disruption (percentage of blood vessels with abnormal TJ morphology)” value ([4]; therapeutic immunization, hippocampus) was 11.00±2.26%, the “average brain to body weight ratio (difference between groups)” value [5] was “did not reach significance” and the “abeta deposition in cerebral capillaries” value (Tg2576 mice [6]; Tg2576 mice) was “No abeta deposition”. The “parenchymal Aβ plaques” value (Tg2576 mice [6]; Tg/+ mice preventatively immunized) was “complete elimination”, the Aβ plaque pathology (Tg2576 mice [6]; Tg/+ mice therapeutically treated) was “dramatic decrease” and the “Aβ deposits compared to Tg/+, PBS (qualitative)” value (Tg2576 mice [6]; Tg/+ mice, therapeutic or preventative (FIG. 14)) was “general reduction of Aβ deposits”. The “vascular abeta deposition in larger vessels” value (Tg2576 mice [6]; mouse, in vivo) was “Mild vascular abeta deposition”.
For `C=C(c1ccc(C(=O)O)cc1)c1cc2c(cc1C)C(C)(C)CCC2(C)C` [bexarotene], the memory performance (animal models of AD) is listed as “increase memory performance”, the plaque burden (animal models of AD) is listed as “reduce plaque burden” and the “angiogenesis (proliferation, adhesion, invasion and migration of endothelial cells)” value (endothelial cells) is listed as “inhibits angiogenesis”.
